Reference: EP1228058B1, “BENZOPYRANYL GUANIDINE DERIVATIVES, PROCESS FOR PREPARATION THEREOF, AND PHARMACEUTICAL COMPOSITIONS CONTAINING THEM” (Dongbu Hannong Chemical Co., Ltd., priority 1999, dated 2001)

system: not listed separately; experiment: Acute oral toxicity test in rats; conditions: rat, in vivo, single oral dose in 0.5% methyl cellulose, read-out: lethal dose (LD50) for oral administration
Procedure: In this test six-week old SPF SD rats were used with two rats assigned to each group. The compounds of examples 1, 2, 3, 5, 7, 8, 9, 10, 13, 14, 15, 19, 22, 23, 24, 25, 26, 28, 29, 30, 31, 32, 33, 34, 35, 36, 37, 38, 39, 40, 41, 44, 46, 47, 48, 49, 51, 52, 57, 58, 60, 62, 64, 67, 68, 69, 71 and 72 were suspended in 0.5% methyl cellulose, respectively, and administered orally at a single dose of 1 g/kg using a ball-tipped needle. The dosing volume was 10 ml/kg. […] All survivors at the end of the observation period underwent laparotomy under ether anesthesia and the blood samples were taken from the abdominal aorta for hematological tests and biochemical analysis. After sacrificing the animals, autopsy was performed for macroscopic observation of the organs and tissues. Tissue samples of vital organs from macroscopic legion were removed and fixed in 10% neutral buffered formalin solution, then processed by standard procedures for histopathology and examined under light microscope. There were no significant changes in clinical symptoms, body weight and mortalities. Also in hematology, serum chemistry parameters and macroscopic observation, no drug-related changes were observed.

Which LD50 does the source give for `COc1ccc(NC(=NC#N)N[C@H]2c3cc([N+](=O)[O-])ccc3O[C@@](C)(C(OC)OC)[C@@H]2O)cc1` [Example 8, (2R, 3R, 4S)-N''-cyano-N-(6-nitro-3,4-dihydro-3-hydroxy-2-methyl-2-dimethoxymethyl-2H-benzopyran-4-yl)-N'-(4-methoxyphenyl) guanidine] here?
The LD50 was > 1000 mg/kg.

With `CC1(C)COC([C@@]2(C)Oc3ccc([N+](=O)[O-])cc3[C@@H](NC(=NC#N)NCc3ccccc3)[C@@H]2O)OC1` [Example 64, (2S, 3S, 4R)-N''-cyano-N-(6-nitro-3,9-dihydro-3-hydroxy-2-methyl-2-([1,3]-5,5-dimethyldioxan-2-yl)-2H-benzopyran-4-yl)-N'-benzyl guanidine] as the compound, how does the LD50 read?
Its LD50 is > 1000 mg/kg.

With `COC[C@@]1(C)Oc2ccc([N+](=O)[O-])cc2[C@@H](NC(=NC#N)Nc2ccc(Cl)cc2)[C@@H]1O` [Example 31, (2R, 3S, 4R)-N''-cyano-N-(6-nitro-3,4-dihydro-3-hydroxy-2-methyl-2-methoxymethyl-2H-benzopyran-4-yl)-N'-(4-chlorophenyl)guanidine] as the compound, how does the LD50 read?
The LD50 was > 1000 mg/kg.

Which LD50 does the source give for `COc1ccc(CNC(=NC#N)N[C@@H]2c3cc(N)ccc3O[C@](C)(C(OC)OC)[C@H]2O)cc1` [Example 51, (2S,3S,4R)-N''-cyano-N-(6-amino-3,4-dihydro-3-hydroxy-2-methyl-2-dimethoxymethyl-2H-benzopyran-4-yl)-N'-(4-methoxybenzyl) guanidine] here?
Its LD50 is > 1000 mg/kg.

Which LD50 does the source give for `COC(OC)[C@]1(C)Oc2ccc([N+](=O)[O-])cc2[C@H](NC(=NC#N)Nc2ccc([N+](=O)[O-])cc2)[C@H]1O` [Example 5, (2R, 3R, 4S)-N''-cyano-N-(6-nitro-3,4-dihydro-3-hydroxy-2-methyl-2-dimethoxymethyl-2H-benzopyran-4-yl)-N'-(4-nitrophenyl)guanidine] here?
The LD50 was > 1000 mg/kg.

With `COC(OC)[C@@]1(C)Oc2ccc(Br)cc2[C@@H](NC(=NC#N)NCc2ccccc2)[C@@H]1O` [Example 47, (2S, 3S, 4R)-N''-cyano-N-(6-bromo-3,4-dihydro-3-hydroxy-2-methyl-2-dimethoxymethyl-2H-benzopyran-4-yl)-N'-benzylguanidine] as the compound, how does the LD50 read?
The LD50 was > 1000 mg/kg.

Which LD50 does the source give for `COC(OC)[C@]1(C)Oc2ccc([N+](=O)[O-])cc2[C@H](NC(=NC#N)Nc2ccc(Cl)cc2)[C@H]1O` [Example 1, (2R, 3R, 4S)-N''-cyano-N-(6-nitro-3,4-dihydro-3-hydroxy-2-methyl-2-dimethoxymethyl-2H-benzopyran-4-yl)-N'-(4-chlorophenyl)guanidine] here?
Its LD50 is > 1000 mg/kg.

Which LD50 does the source give for `COC(=O)c1ccc2c(c1)[C@@H](NC(=NC#N)NCc1ccccc1)[C@H](O)[C@](C)(C(OC)OC)O2` [Example 69, (2R, 3S, 4R)-N''-cyano-N (6-methoxycarbonyl-3,4-dihydro-3-hydroxy-2-methyl-2-dimthoxymethyl-2H-benzopyran-4-yl)-N'-benzylguanidine] here?
Its LD50 is > 1000 mg/kg.

For `COC(OC)[C@@]1(C)Oc2ccc([N+](=O)[O-])cc2[C@@H](NC(=NC#N)Nc2ccccc2Cl)[C@@H]1O` [Example 33, (2S, 3S, 4R)-N''-cyano-N-(6-nitro-3,4-dihydro-3-hydroxy-2-methyl-2-dimethoxymethyl-2H-benzopyran-4-yl)-N'-(2-chlorophenyl)guanidine], which LD50 is on record?
The LD50 was > 1000 mg/kg.

Which LD50 does the source give for `C[C@]1(C2OCCCO2)Oc2ccc([N+](=O)[O-])cc2[C@@H](NC(=NC#N)NCc2ccccc2)[C@@H]1O` [Example 62, (2S, 3S, 4R) -N''-cyano-N-(6-nitro-3,4-dihydro-3-hydroxy-2-methyl-2-([1,3]dioxan-2-yl)-2H-benzopyran-4-yl)-N'-benzylguanidine] here?
Its LD50 is > 1000 mg/kg.

For `COC(OC)[C@@]1(C)Oc2c(N)cccc2[C@@H](NC(=NC#N)NCc2ccccc2)[C@@H]1O` [Example 71, (2S, 3S, 4R)-N''-cyano-N-(8-amino-3,4-dihydro-3-hydroxy-2-methyl-2-dimthoxymethyl-2H-benzopyran-4-yl)-N'-benzylguanidine], which LD50 is on record?
The LD50 was > 1000 mg/kg.

With `COC(OC)[C@]1(C)C=C(NC(=NC#N)NCc2ccccc2)c2cc([N+](=O)[O-])ccc2O1` [Example 39, (2S)-N''-cyano-N-(6-nitro-2-methyl-2-dimethoxymethyl-2H-benzopyran-4-yl)-N'-benzylguanidine] as the compound, how does the LD50 read?
The LD50 was > 1000 mg/kg.

With `COC(OC)[C@]1(C)Oc2ccc([N+](=O)[O-])cc2[C@@H](NC(=NC#N)Nc2ccc(C)cc2)[C@@H]1O` [Example 19, (2R, 3S, 4R)-N''-cyano-N-(6-nitro-3,4-dihydro-3-hydroxy-2-methyl-2-dimethoxymethyl-2H-benzopyran-4-yl)-N'-(4-methylphenyl)guanidine] as the compound, how does the LD50 read?
The LD50 was > 1000 mg/kg.

With `C[C@]1(C2OCCO2)Oc2ccc([N+](=O)[O-])cc2[C@@H](NC(=NC#N)NCc2ccccc2)[C@@H]1O` [Example 60, (2S, 3S, 4R)-N''-cyano-N-(6-nitro-3,4-dihydro-3-hydroxy-2-methyl-2-([1,3]dioxolan-2-yl)-2H-benzopyran-4-yl)-N'-benzylguanidine] as the compound, how does the LD50 read?
Its LD50 is > 1000 mg/kg.

Which LD50 does the source give for `COC(OC)[C@]1(C)Oc2c(N)cccc2[C@@H](NC(=NC#N)NCc2ccccc2)[C@@H]1O` [Example 72, (2R, 3S, 4R)-N''-cyano-N-(8-amino-3,4-dihydro-3-hydroxy-2-methyl-2-dimthoxymethyl-2H-benzopyran-4-yl)-N'-benzylguanidine] here?
Its LD50 is > 1000 mg/kg.

With `COC(=O)c1ccc2c(c1)[C@@H](NC(=NC#N)NCc1ccccc1)[C@H](O)[C@@](C)(C(OC)OC)O2` [Example 68, (2S, 3S, 4R)-N''-cyano-N-(6-methoxycarbonyl-3,4-dihydro-3-hydroxy-2-methyl-2-dimthoxymethyl-2H-benzopyran-4-yl)-N'-benzylguanidine] as the compound, how does the LD50 read?
Its LD50 is > 1000 mg/kg.

With `COC(OC)[C@@]1(C)Oc2ccc([N+](=O)[O-])cc2[C@@H](NC(=NC#N)Nc2ccccc2C(F)(F)F)[C@@H]1O` [Example 35, (2S, 3S, 4R)-N''-cyano-N-(6-nitro-3,4-dihydro-3-hydroxy-2-methyl-2-dimethoxymethyl-2H-benzopyran-4-yl)-N'-(2-trifluoromethylphenyl)guanidine] as the compound, how does the LD50 read?
The LD50 was > 1000 mg/kg.

Which LD50 does the source give for `C[C@]1(CO)Oc2ccc([N+](=O)[O-])cc2[C@@H](NC(=NC#N)Nc2ccc(Cl)cc2)[C@@H]1O` [Example 29, (2R, 3S, 4R)-N''-cyano-N-(6-nitro-3,4-dihydro-3-hydroxy-2-methyl-2-hydroxymethyl-2H-benzopyran-4-yl)-N'-(4-chlorophenyl)guanidine] here?
The LD50 was > 1000 mg/kg.

With `C[C@]1(CO)Oc2ccc([N+](=O)[O-])cc2[C@H](NC(=NC#N)Nc2ccc(Cl)cc2)[C@H]1O` [Example 28, (2R, 3R, 4S)-N''-cyano-N-(6-nitro-3,4-dihydro-3-hydroxy-2-methyl-2-hydroxymethyl-2H-benzopyran-4-yl)-N'-(4-chlorophenyl)guanidine] as the compound, how does the LD50 read?
Its LD50 is > 1000 mg/kg.

Which LD50 does the source give for `CCOC(OCC)[C@@]1(C)Oc2ccc(N)cc2[C@@H](NC(=NC#N)NCc2ccccc2)[C@@H]1O` [Example 67, (2S, 3S, 4R)-N''-cyano-N-(6-amino-3,4-dihydro-3-hydroxy-2-methyl-2-diethoxymethyl-2H-benzopyran-4-yl)-N'-benzylguanidine] here?
Its LD50 is > 1000 mg/kg.

Which LD50 does the source give for `COc1ccc(CNC(=NC#N)N[C@@H]2c3cc(N)ccc3O[C@](C)(C(OC)OC)[C@H]2O)cc1OC` [Example 49, (2S, 3S, 4R)-N''-cyano-N-(6-amino-3,4-dihydro-3-hydroxy-2-methyl-2-dimethoxymethyl-2H-benzopyran-4-yl)-N'-(3,4-dimethoxybenzyl) guanidine] here?
The LD50 was > 1000 mg/kg.

For `COC(OC)[C@]1(C)Oc2ccc([N+](=O)[O-])cc2[C@@H](NC(=NC#N)NCc2ccccc2)[C@@H]1O` [Example 23, (2R, 3S, 4R)-N''-cyano-N-(6-nitro-3,4-dihydro-3-hydroxy-2-methyl-2-dimethoxymethyl-2H-benzopyran-4-yl)-N'-benzylguanidine], which LD50 is on record?
The LD50 was > 1000 mg/kg.

Which LD50 does the source give for `COc1ccc(CNC(=NC#N)N[C@@H]2c3cc([N+](=O)[O-])ccc3O[C@](C)(C(OC)OC)[C@H]2O)cc1OC` [Example 48, (2S, 3S, 4R)-N''-cyano-N-(6-nitro-3,4-dihydro-3-hydroxy-2-methyl-2-dimethoxymethyl-2H-benzopyran-4-yl)-N'-(3,4-dimethoxybenzyl) guanidine] here?
Its LD50 is > 1000 mg/kg.

Which LD50 does the source give for `COC(OC)[C@@]1(C)Oc2ccc([N+](=O)[O-])cc2[C@@H](NC(=NC#N)Nc2cccc(Cl)c2)[C@@H]1O` [Example 13, (2S, 3S, 4R)-N''-cyano-N-(6-nitro-3,4-dihydro-3-hydroxy-2-methyl-2-dimethoxymethyl-2H-benzopyran-4-yl)-N'-(3-chlorophenyl)guanidine] here?
Its LD50 is > 1000 mg/kg.

With `COC(OC)[C@@]1(C)Oc2ccc(C#N)cc2[C@H](NC(=NC#N)NCc2ccccc2)[C@H]1O` [Example 46, (2S, 3R, 4S)-N''-cyano-N-(6-cyano-3,4-dihydro-3-hydroxy-2-methyl-2-dimethoxymethyl-2H-benzopyran-4-yl)-N'-benzylguanidine] as the compound, how does the LD50 read?
The LD50 was > 1000 mg/kg.

system: HUVEC; experiment: Inhibition of HUVEC tube formation on Matrigel; type: cell-based, Human; parameters: key: -: no effect; +/-: week effect; +: moderate effect; ++: strong effect; conditions: 10 uM
Procedure: HUVEC (Human umbilical vein endothelial cells, ATCC CRL-1730) were cultured, and tubulogenesis was induced in vascular endothelial cells by plating them onto the surface of Matrigel for several hours. The effects on tube formation of the test compounds were compared with the vehicle treated controls, then confirmed their in vitro anti-angiogenic effect indirectly.

For `COc1ccc(NC(=NC#N)N[C@H]2c3cc([N+](=O)[O-])ccc3O[C@](C)(C(OC)OC)[C@@H]2O)cc1` [Example 16, (2S, 3R, 4S)-N''-cyano-N-(6-nitro-3,4-dihydro-3-hydroxy-2-methyl-2-dimethoxymethyl-2H-benzopyran-9-yl)-N'-(4-methoxyphenyl) guanidine], which “Inhibitory Effects on Tube Formation” value is on record?
Its value is “+/-”.

same assay, conditions: 100 uM

Which “Inhibitory Effects on Tube Formation” value does the source give for `COc1ccc(NC(=NC#N)N[C@H]2c3cc([N+](=O)[O-])ccc3O[C@](C)(C(OC)OC)[C@@H]2O)cc1` [Example 16, (2S, 3R, 4S)-N''-cyano-N-(6-nitro-3,4-dihydro-3-hydroxy-2-methyl-2-dimethoxymethyl-2H-benzopyran-9-yl)-N'-(4-methoxyphenyl) guanidine] here?
Its value is “+/-”.
